Assay results from US9670204B2, “Compounds and pharmaceutical compositions thereof for the treatment of inflammatory disorders” (Galapagos NV, priority 2013, dated 2017).

Experiments:
hENPP2 [1] = molecular target: T1, hENPP2 (UniProtKB/SwissProt Q13822) (Homo sapiens (Human), UniProt Q13822); test: hENPP2 biochemical assay, LPC as substrate; conditions: LPC (palmitoyl 16:0) as substrate
Outline: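 Human ENPP2 in 50 mM Tris-HCl pH 8.5, 500 mM NaCl, 5 mM KCl, 10 mM CaCl2, 0.1% fatty-acid-free BSA, reacted 30 min at 37 °C with LPC 16:0 (150 µM solution added 1:1). Released choline measured via choline oxidase/peroxidase/TOOS/4-aminoantipyrine quinoneimine dye at 555 nm; IC50 reported.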

hENPP2 [2] = molecular target: T1, hENPP2; test: fluorescent hENPP2 biochemical assay, FS-3 as substrate; conditions: read-out: FS3-IC50
Description: Compound IC50 values are determined in a fluorescent hENPP2 (UniProtKB/SwissProt Sequence ref Q13822) biochemical assay using the fluorogenic autotaxin substrate FS-3 as substrate. FS-3 is a doubly labeled analog of LPC wherein the fluorophore is quenched through intramolecular energy transfer. Without hENPP2, the emission of the probe is quenched. If the substrate is hydrolyzed by hENPP2, the emission of the probe is not quenched anymore resulting in a fluorescence increase.
The enzyme is diluted in 50 mM Tris-HCl pH 8.0, 250 mM NaCl, 5 mM KCl, 1 mM MgCl2, 1 mM CaCl2, 0.1% fatty acid free BSA in a total volume of 20 μL. Enzyme mixture is added to compounds and the resulting mixture is incubated for 30 min at room temperature under shaking. The reaction is started by the addition of 20 μL of 0.75 μM FS-3 diluted in the same buffer as described above and the mixture is incubated at 30° C. for 30 min. Fluorescence is read on the Envision (Excitation 485 nm, emission 520 nm).

| Compound | IC50 (hENPP2 [1]) [nM] | IC50 (hENPP2 [2]) [nM] |
| --- | --- | --- |
| CCc1nc2ccc(C3CCN(S(C)(=O)=O)CC3O)cn2c1N(C)c1nc(-c2ccc(F)cc2)cs1 (stereo not shown) [Compound 79, 4-(2-ethyl-3-((4-(4-fluorophenyl)thiazol-2-yl)(methyl)amino)imidazo[1,2-a]pyridin-6-yl)-1-(methylsulfonyl) piperidin-3-ol] | > 1000 | 0.01 to 100 |
| CCc1nc2ccc(C3CCN(S(C)(=O)=O)CC3)cn2c1N(C)c1nc(-c2ccc(OC)cc2)cs1 [Compound 82, N-(2-ethyl-6-(1-(methylsulfonyl)piperidin-4-yl)imidazo [1,2-a]pyridin-3-yl)-4-(4-methoxyphenyl)-N-methylthiazol-2-amine] | > 1000 | 0.01 to 100 |
| CCc1nc2ccc(C3CCN(S(=O)(=O)CCCCl)CC3)cn2c1N(C)c1nc(-c2ccc(F)cc2)cs1 [Compound 86, N-(6-(1-(3-chloropropylsulfonyl)piperidin-4-yl)-2-ethylimidazo[1,2-a]pyridin-3-yl)-4-(4-fluorophenyl)-N-methylthiazol-2-amine] | > 1000 | 0.01 to 100 |
| CCc1nc2ccc(C3CCN(S(=O)(=O)CCCN4CCCC4)CC3)cn2c1N(C)c1nc(-c2ccc(F)cc2)cs1 [Compound 89, {2-Ethyl-6-[1-(3-pyrrolidin-1-yl-propane-1-sulfonyl)-piperidin-4-yl]-imidazo[1,2-a]pyridin-3-yl}-[4-(4-fluoro-phenyl)-thiazol-2-yl]-methyl-amine] | 100 to 500 | 0.01 to 100 |
| CCc1nc2ccc(C3CCN(S(=O)(=O)CCCN)CC3)cn2c1N(C)c1nc(-c2ccc(F)cc2)cs1 [Compound 90, N-(6-(1-(3-aminopropylsulfonyl)piperidin-4-yl)-2-ethylimidazo[1,2-a]pyridin-3-yl)-4-(4-fluorophenyl)-N-methylthiazol-2-amine] | 500 to 1000 | 0.01 to 100 |
| CCc1nc2ccc(C3CCN(S(N)(=O)=O)CC3)cn2c1N(C)c1nc(-c2ccc(F)cc2)cs1 [Compound 92, 4-(2-ethyl-3-((4-(4-fluorophenyl)thiazol-2-yl)(methyl)amino)imidazo[1,2-a]pyridin-6-yl)piperidine-1-sulfonamide] | > 1000 | 0.01 to 100 |
| CCc1nc2ccc(C3CCN(S(=O)(=O)CCCOC(C)=O)CC3)cn2c1N(C)c1nc(-c2ccc(F)cc2)cs1 [Compound 93, 3-(4-(2-ethyl-3-((4-(4-fluorophenyl)thiazol-2-yl)(methyl)amino)imidazo[1,2-a]pyridin-6-yl)piperidin-1-ylsulfonyl)propyl acetate] | 100 to 500 | 0.01 to 100 |

Further lines, results first:

| IC50 (hENPP2 [1]) [nM] | IC50 (hENPP2 [2]) [nM] | Compound |
| --- | --- | --- |
| > 1000 | 0.01 to 100 | CCc1nc2ccc(C3=CCN(S(C)(=O)=O)CC3)cn2c1N(C)c1nc(-c2ccc(F)cc2)c(F)s1 [Compound 77, N-(2-ethyl-6-(1-(methylsulfonyl)-1,2,3,6-tetrahydropyridin-4-yl)imidazo[1,2-a]pyridin-3-yl)-5-fluoro-4-(4-fluorophenyl)-N-methylthiazol-2-amine] |
| > 1000 | 0.01 to 100 | CCc1nc2ccc(C3CCN(C(=O)OC(C)(C)C)CC3O)cn2c1N(C)c1nc(-c2ccc(F)cc2)cs1 (stereo not shown) [Compound 78, tert-butyl 4-(2-ethyl-3-((4-(4-fluorophenyl)thiazol-2-yl)(methyl)amino)imidazo[1,2-a]pyridin-6-yl)-3-hydroxypiperidine-1-carboxylate] |
| > 1000 | 0.01 to 100 | CCc1nc2ccc(C3CCN(S(C)(=O)=O)CC3)cn2c1N(C)c1nc(-c2ccc(C(C)(C)C)cc2)cs1 [Compound 81, 4-(4-tert-butylphenyl)-N-(2-ethyl-6-(1-(methylsulfonyl)piperidin-4-yl)imidazo [1,2-a]pyridin-3-yl)-N-methylthiazol-2-amine] |
| > 1000 | 0.01 to 100 | CCc1nc2ccc(C3CCN(S(C)(=O)=O)CC3)cn2c1N(C)c1nc(-c2ccc(F)cc2Cl)cs1 [Compound 99, 4-(2-chloro-4-fluorophenyl)-N-(2-ethyl-6-(1-(methylsulfonyl)piperidin-4-yl)imidazo [1,2-a]pyridin-3-yl)-N-methylthiazol-2-amine] |
